# According to patent publication US7323457B2, “Substituted sulfonamides and ureas useful for inhibiting kinase activity” (Aventis Pharmaceuticals Inc., priority 2001, dated 2008):
# Target: Src Kinase (p60^C-Src) (Homo sapiens, UniProt P12931)
# Assay: Src kinase DELFIA time-resolved fluorometric assay
# Type: biochemical
# Settings: Src kinase inhibitory activity; 100 μM ATP, poly(Glu, Tyr) 4:1 substrate, 15 min at room temp.; read-out: Activity (μMol, Delfia assay. IC50)
# Method: The compounds 1-25 above were assayed for activity with respect to the Src protein tyrosine kinase by the fluorometric method described in Measurement of the Protein Tyrosine Kinase Activity of c-Src Using Time-Resolved Fluorometry of Europium Chelates, Braunwalder, A.F. et al., Analytical Biochemistry 238, 159-164 (1996), the disclosure of which is incorporated herein by reference, using the materials and procedures further specified below.
# General Assay Method for Src-Kinase:
# • Costar 384 Clear, non-treated, high-binding plates • Sigma poly(Glu, Tyr) 4:1, ave. MW 35,000 • Src Kinase (p60^C-Src) • Sigma ATP (1.5 mM Stock Soln. in H2O) • MES Buffer: 30 mM MES (pH 6.8) • 10 mM MgCl2 • MBI Buffer: (MES+0.4 mg/ml BSA+0.003% IGEPAL) • Wallac Eu-labelled anti-phosphotyrosine Antibody (CR04-100) • Coating Solution: • 22.5 mM Na2CO3 (pH 9.6) • 27.5 mM NaHCO3 • 0.9% NaCl • Antibody Dilution Buffer: (MES+3% BSA) • DELFIA® Wash Solution (TTBS): • 0.5 M NaCl • 20 mM Tris (pH7.4) • 0.15% Tween 20 • DELFIA Enhancement Solution Method:
# The plates were coated with 0.1 mg/ml poly(Glu, Tyr) in Coating Solution, 35 μl/well. […]
# The reaction was stopped by aspiration, and then washed 3 times with MES (100 μl/wash). […] 20 μl DELFIA enhancement solution was added and the plates were read on a Wallac Victor plate reader in time-resolved fluorescence mode using 340 nm excitation and 615 nm emission wavelengths.
substance,measurement,value
[4-(Piperidin-4-yl)carbonyl-1-[[2-(4-phenylbutanoyl) amino]-4-[(1-aminocarbonyl-2-(naphth-2-yl))ethylamino]-carbonylaminophenyl]homopiperazine [Example 21],IC50,22 µM
